According to ChEMBL document CHEMBL2021773, “Isolation, structure elucidation, and antibacterial activity of methiosetin, a tetramic acid from a tropical sooty mold (Capnodium sp.)” (2012):
≈ marks a conversion by molar mass, not a printed value. Calls of active or inactive are those of the source. The rule behind the calls is not given here.

Experiments:
Haemophilus influenzae = test: Antibacterial activity against Haemophilus influenzae by two fold serial broth dilution method; assay type: functional
Staphylococcus aureus [1] = test: Potency ratio, ratio of methiosetin MIC to compound MIC for Staphylococcus aureus EP167 by two fold serial broth dilution method; assay type: functional
Staphylococcus aureus [2] = test: Antibacterial activity against Staphylococcus aureus EP167 by two fold serial broth dilution method; assay type: functional
Enterococcus faecalis = test: Antibacterial activity against Enterococcus faecalis at 64 ug/mL by two fold serial broth dilution method; assay type: functional, organism-based
Streptococcus pneumoniae = test: Antibacterial activity against Streptococcus pneumoniae at 64 ug/mL by two fold serial broth dilution method; assay type: functional, organism-based
Escherichia coli = test: Antibacterial activity against Escherichia coli at 64 ug/mL by two fold serial broth dilution method; assay type: functional, organism-based
Staphylococcus aureus [3] = test: Antibacterial activity against Staphylococcus aureus Smith at 64 ug/mL by two fold serial broth dilution method; assay type: functional, organism-based

Compound | MIC (Haemophilus influenzae) [µg/mL] | Ratio (Staphylococcus aureus [1]) | MIC (Staphylococcus aureus [2]) [µg/mL] | inhibition (Enterococcus faecalis) | inhibition (Streptococcus pneumoniae) | inhibition (Escherichia coli) | inhibition (Staphylococcus aureus [3])
O=C1C=C[C@H](O)[C@@H]2[C@@H]1C[C@@]13SS[C@]4(C[C@@H]5C(=O)C=C[C@H](O)[C@H]5N4C1=O)C(=O)N23 [EPICORAZINE A] | 0.5 (≈ 1.19 µM) | 8 | 32 (≈ 76.1 µM) |  |  |  | 
CC(O)C1C(O)=C(C(=O)[C@H]2[C@@H]3CCCC[C@H]3C=C[C@H]2C)C(=O)N1C (some centres undefined) [METHIOSETIN] | 32 (≈ 96 µM) |  | 256 (≈ 768 µM) | inactive | inactive | inactive | inactive
